Experimental data: PubChem BioAssay AID248 (DTP/NCI, 2004)
Values joined by “and” are separate entries in the source; they are usually repeats but may differ in a detail not shown here. Equal values may be shown once. Toxic doses and inconclusive results are not listed. No stated cut-off is given here; in the data, active means T/C of 150% or more; inactive means T/C below 125%.

System: L1210 leukemia ip in BDF1 mice, survival T/C
Experiment: NCI In Vivo Anticancer Drug Screen. Data for tumor model L1210 Leukemia (intraperitoneal) in B6D2F1 (BDF1) mice
Conditions: endpoint: mean survival time, higher = longer survival
How it was run: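 In this screen, tumor-bearing mice given compound are compared to those given vehicle, and their survival values are reported as a treated-to-control quotient.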

[1] = dose: 100.0 mg/kg/injection, schedule: Q04DX003 (ip), vehicle: Klucel (hydroxypropylcellulose) (HPC)
[2] = dose: 200.0 mg/kg/injection, schedule: Q04DX003 (ip), vehicle: Klucel (hydroxypropylcellulose) (HPC)
[3] = dose: 400.0 mg/kg/injection, schedule: Q04DX003 (ip), vehicle: Klucel (hydroxypropylcellulose) (HPC)
[4] = dose: 100.0 mg/kg/injection, schedule: Q01DX009 (ip), vehicle: Klucel (hydroxypropylcellulose) (HPC)
[5] = dose: 200.0 mg/kg/injection, schedule: Q01DX009 (ip), vehicle: Klucel (hydroxypropylcellulose) (HPC)
[6] = dose: 400.0 mg/kg/injection, schedule: Q01DX009 (ip), vehicle: Klucel (hydroxypropylcellulose) (HPC)
[7] = dose: 100.0 mg/kg/injection, schedule: Q01DX001 (ip), vehicle: saline
[8] = dose: 200.0 mg/kg/injection, schedule: Q01DX001 (ip), vehicle: saline
[9] = dose: 100.0 mg/kg/injection, schedule: Q04DX003 (ip), vehicle: saline with Tween-80
[10] = dose: 200.0 mg/kg/injection, schedule: Q04DX003 (ip), vehicle: saline with Tween-80
[11] = dose: 400.0 mg/kg/injection, schedule: Q04DX003 (ip), vehicle: saline with Tween-80
[12] = dose: 6.25 mg/kg/injection, schedule: Q01DX009 (ip), vehicle: carboxymethylcellulose (CMC)
[13] = dose: 12.5 mg/kg/injection, schedule: Q01DX009 (ip), vehicle: carboxymethylcellulose (CMC)
[14] = dose: 400.0 mg/kg/injection, schedule: Q01DX001 (ip), vehicle: saline
[15] = dose: 100.0 mg/kg/injection, schedule: Q01DX009 (ip), vehicle: saline with Tween-80
[16] = dose: 200.0 mg/kg/injection, schedule: Q01DX009 (ip), vehicle: saline with Tween-80
[17] = dose: 400.0 mg/kg/injection, schedule: Q01DX009 (ip), vehicle: saline with Tween-80
[18] = dose: 100.0 mg/kg/injection, schedule: Q01DX001 (ip), vehicle: carboxymethylcellulose (CMC)
[19] = dose: 200.0 mg/kg/injection, schedule: Q01DX001 (ip), vehicle: carboxymethylcellulose (CMC)
[20] = dose: 400.0 mg/kg/injection, schedule: Q01DX001 (ip), vehicle: carboxymethylcellulose (CMC)

Measured: T/C

NC(N)=N/N=C/c1ccc[nH]1
inactive: dose: 15.0 mg/kg/injection, schedule: Q01DX Z (ip), vehicle: saline 94 % of control | dose: 30.0 mg/kg/injection, schedule: Q01DX Z (ip), vehicle: saline 99 % of control | dose: 60.0 mg/kg/injection, schedule: Q01DX Z (ip), vehicle: saline 96 % of control | dose: 120.0 mg/kg/injection, schedule: Q01DX Z (ip), vehicle: saline 91 % of control | dose: 120.0 mg/kg/injection, schedule: Q01DX Z (oral), vehicle: saline 105 % of control | dose: 240.0 mg/kg/injection, schedule: Q01DX Z (ip), vehicle: saline 93 % of control | dose: 240.0 mg/kg/injection, schedule: Q01DX Z (oral), vehicle: saline 106 % of control | dose: 480.0 mg/kg/injection, schedule: Q01DX Z (ip), vehicle: saline 98 % of control | dose: 480.0 mg/kg/injection, schedule: Q01DX Z (oral), vehicle: saline 103 % of control | dose: 960.0 mg/kg/injection, schedule: Q01DX Z (oral), vehicle: saline 103 % of control

CN(C)c1ccc2c(c1)Cc1cc(N3C(=O)C=CC3=O)ccc1-2
inactive: [1] 101 % of control | [2] 101 % of control | [3] 95 % of control

COc1ccccc1NC(=O)c1ccccc1F
inactive: [4] 95 % of control | [5] 95 % of control | [6] 101 % of control

COc1cc(/C=C(/C)[N+](=O)[O-])c([N+](=O)[O-])cc1OC
inactive: [7] 98 % of control | [8] 90 % of control

O=C(O)COc1ccc(F)cc1Cl
inactive: [4] 93 % of control | [1] 96 % of control | [5] 96 % of control | [2] 98 % of control | [3] 94 % of control

O=C(c1ccc(Cl)cc1Cl)C(CS(=O)(=O)O)CS(=O)(=O)O
inactive: [9] 99 % of control | [10] 98 % of control | [11] 100 % of control

Nc1ncnc2c1ncn2C1CC(CO)C(O)C1O (stereo not drawn)
inactive: dose: 2.0 mg/kg/injection, schedule: Q01DX015 (ip), vehicle: Klucel (hydroxypropylcellulose) (HPC) 114 % of control | dose: 3.0 mg/kg/injection, schedule: Q01DX015 (ip), vehicle: Klucel (hydroxypropylcellulose) (HPC) 91 % of control | dose: 4.4 mg/kg/injection, schedule: Q01DX015 (ip), vehicle: Klucel (hydroxypropylcellulose) (HPC) 93 % of control | [12] 98 % of control | dose: 6.7 mg/kg/injection, schedule: Q01DX015 (ip), vehicle: Klucel (hydroxypropylcellulose) (HPC) 96 % of control | dose: 10.0 mg/kg/injection, schedule: Q01DX015 (ip), vehicle: Klucel (hydroxypropylcellulose) (HPC) 97 % of control | [13] 97 % of control | dose: 15.0 mg/kg/injection, schedule: Q01DX015 (ip), vehicle: Klucel (hydroxypropylcellulose) (HPC) 98 % of control | dose: 25.0 mg/kg/injection, schedule: Q01DX009 (ip), vehicle: carboxymethylcellulose (CMC) 89 % of control | dose: 50.0 mg/kg/injection, schedule: Q01DX001 (ip), vehicle: saline 93 % of control | [7] 102 % of control | [8] 91 % of control | [14] 88 % of control

c1ccc(CN2CCNCC2)cc1
inactive: dose: 6.25 mg/kg/injection, schedule: Q01DX009 (ip), vehicle: saline 93 % of control | dose: 12.5 mg/kg/injection, schedule: Q01DX009 (ip), vehicle: saline 93 % of control | dose: 25.0 mg/kg/injection, schedule: Q01DX009 (ip), vehicle: saline 94 % of control

COc1ccc2c(c1)/C(=C/CCN(C)C)c1ccccc1S2
inactive: dose: 6.0 mg/kg/injection, schedule: Q01DX Z (ip), vehicle: methylcellulose (MC) 110 % of control | [12] 97 % of control | dose: 12.0 mg/kg/injection, schedule: Q01DX Z (ip), vehicle: methylcellulose (MC) 114 % of control | dose: 12.5 mg/kg/injection, schedule: Q01DX001 (ip), vehicle: carboxymethylcellulose (CMC) 100 % of control | [13] 108 % of control | dose: 12.5 mg/kg/injection, schedule: Q04DX003 (ip), vehicle: other 105 % of control | dose: 15.0 mg/kg/injection, schedule: Q01DX Z (ip), vehicle: methylcellulose (MC) 104 % of control | dose: 20.0 mg/kg/injection, schedule: Q01DX Z (ip), vehicle: methylcellulose (MC) 119 % of control | dose: 25.0 mg/kg/injection, schedule: Q01DX001 (ip), vehicle: carboxymethylcellulose (CMC) 100 % of control | dose: 25.0 mg/kg/injection, schedule: Q04DX003 (ip), vehicle: other 101 % of control | dose: 50.0 mg/kg/injection, schedule: Q01DX001 (ip), vehicle: carboxymethylcellulose (CMC) 114 % of control

CCCCCCCCCCCCCCCC(=O)NCC[N+](CC)(CC)Cc1ccc(C[N+](CC)(CC)CCNC(=O)CCCCCCCCCCCCCCC)cc1
inactive: dose: 75.0 mg/kg/injection, schedule: Q01DX001 (ip), vehicle: saline 98 % of control

COCCNP(=O)(OC(C)C)OC(C)C
inactive: dose: 100.0 mg/kg/injection, schedule: Q01DX009 (ip), vehicle: saline 97 % of control | dose: 200.0 mg/kg/injection, schedule: Q01DX009 (ip), vehicle: saline 92 % of control | dose: 400.0 mg/kg/injection, schedule: Q01DX009 (ip), vehicle: saline 94 % of control

CCCCP(=S)(CCCC)N(CC)CC
inactive: [1] 101 % of control | [2] 104 % of control | [3] 93 % of control

COc1n[n+]([O-])c(Cl)c(/C=C\c2ccccc2)c1[N+](=O)[O-]
inactive: dose: 75.0 mg/kg/injection, schedule: Q04DX002 (ip), vehicle: Klucel (hydroxypropylcellulose) (HPC) 93 % of control | dose: 150.0 mg/kg/injection, schedule: Q04DX002 (ip), vehicle: Klucel (hydroxypropylcellulose) (HPC) 101 % of control | dose: 300.0 mg/kg/injection, schedule: Q04DX002 (ip), vehicle: Klucel (hydroxypropylcellulose) (HPC) 101 % of control

O=C(Nc1cc(C(F)(F)F)cc(C(F)(F)F)c1)Nc1ccccc1C(F)(F)F
inactive: [4] 98 % of control | [5] 102 % of control | [6] 90 % of control

O=C(c1cccc(C(=O)n2c3c(c4ccccc42)CCCC3)c1)n1c2c(c3ccccc31)CCCC2
inactive: [15] 90 % of control | [9] 95 % of control | [16] 90 % of control | [10] 98 % of control | [17] 94 % of control | [11] 88 % of control

COc1ccc(NC(=O)Oc2ccccc2-c2ccccc2)cc1
inactive: [9] 91 % of control | [10] 91 % of control | [11] 86 % of control

C=C1CC2C=CC1C2 (stereo not drawn) (tested in a mixture with another compound)
inactive: dose: 100.0 mg/kg/injection, schedule: Q01DX001 (ip), vehicle: saline with Tween-80 98 % of control | dose: 200.0 mg/kg/injection, schedule: Q01DX001 (ip), vehicle: saline with Tween-80 93 % of control | dose: 400.0 mg/kg/injection, schedule: Q01DX001 (ip), vehicle: saline with Tween-80 94 % of control

O=c1[nH]c2cc([N+](=O)[O-])ccc2c2ccc(Cl)cc12
inactive: [18] 102 % of control | [19] 91 % of control | [20] 95 % of control

O=C(Nc1ccc2c(c1)OCO2)O/N=C\c1ccccn1
inactive: dose: 50.0 mg/kg/injection, schedule: Q01DX009 (ip), vehicle: saline with Tween-80 103 % of control | [15] 86 % of control and 92 % of control | [9] 100 % of control | [16] 86 % of control and 92 % of control | [10] 101 % of control | [17] 91 % of control | [11] 95 % of control

Cc1ccc(NC(=O)Nc2c(C)cccc2C)cc1
inactive: [18] 95 % of control | [19] 95 % of control | [20] 103 % of control

Cc1coc2c1CC1(C)C(CCC(O)C1C)C2 (stereo not drawn)
inactive: [7] 97 % of control | [8] 100 % of control | [14] 103 % of control

CC(=O)CC(=O)Nc1cc(Cl)ccc1C
inactive: [1] 92 % of control | [5] 92 % of control | [2] 97 % of control | [3] 92 % of control

CC(C)CC(O)CC(C)C
inactive: [9] 95 % of control | dose: 118.0 mg/kg/injection, schedule: Q01DX009 (ip), vehicle: saline with Tween-80 108 % of control | [10] 93 % of control | dose: 250.0 mg/kg/injection, schedule: Q01DX009 (ip), vehicle: saline with Tween-80 102 % of control | [11] 90 % of control
